# Where “and” joins values, the source holds several entries; their conditions need not be identical. Equal values may be shown once. Entries after “also recorded” stand apart in the source; their conditions may differ.
# What was measured:
# ΔF508-CFTR [1] = target: T1, ΔF508-CFTR (Homo sapiens, UniProt P13569, DEL508-508); assay: Patch cramming, ΔF508-CFTR patch excised and crammed into NIH/3T3-CFTR cell; type: cell-based; parameters: expressed in transfected cells; host or cells: NIH/3T3 cells, stably transfected (NIH/3T3-ΔF508, gift of Dr. Richard Mulligan); details: ΔF508-CFTR crammed into NIH/3T3-CFTR cell; 10 μM forskolin, 50 μM genistein; n=2
# T1 sequence (P13569 with tags, fused parts or gaps DEL508-508): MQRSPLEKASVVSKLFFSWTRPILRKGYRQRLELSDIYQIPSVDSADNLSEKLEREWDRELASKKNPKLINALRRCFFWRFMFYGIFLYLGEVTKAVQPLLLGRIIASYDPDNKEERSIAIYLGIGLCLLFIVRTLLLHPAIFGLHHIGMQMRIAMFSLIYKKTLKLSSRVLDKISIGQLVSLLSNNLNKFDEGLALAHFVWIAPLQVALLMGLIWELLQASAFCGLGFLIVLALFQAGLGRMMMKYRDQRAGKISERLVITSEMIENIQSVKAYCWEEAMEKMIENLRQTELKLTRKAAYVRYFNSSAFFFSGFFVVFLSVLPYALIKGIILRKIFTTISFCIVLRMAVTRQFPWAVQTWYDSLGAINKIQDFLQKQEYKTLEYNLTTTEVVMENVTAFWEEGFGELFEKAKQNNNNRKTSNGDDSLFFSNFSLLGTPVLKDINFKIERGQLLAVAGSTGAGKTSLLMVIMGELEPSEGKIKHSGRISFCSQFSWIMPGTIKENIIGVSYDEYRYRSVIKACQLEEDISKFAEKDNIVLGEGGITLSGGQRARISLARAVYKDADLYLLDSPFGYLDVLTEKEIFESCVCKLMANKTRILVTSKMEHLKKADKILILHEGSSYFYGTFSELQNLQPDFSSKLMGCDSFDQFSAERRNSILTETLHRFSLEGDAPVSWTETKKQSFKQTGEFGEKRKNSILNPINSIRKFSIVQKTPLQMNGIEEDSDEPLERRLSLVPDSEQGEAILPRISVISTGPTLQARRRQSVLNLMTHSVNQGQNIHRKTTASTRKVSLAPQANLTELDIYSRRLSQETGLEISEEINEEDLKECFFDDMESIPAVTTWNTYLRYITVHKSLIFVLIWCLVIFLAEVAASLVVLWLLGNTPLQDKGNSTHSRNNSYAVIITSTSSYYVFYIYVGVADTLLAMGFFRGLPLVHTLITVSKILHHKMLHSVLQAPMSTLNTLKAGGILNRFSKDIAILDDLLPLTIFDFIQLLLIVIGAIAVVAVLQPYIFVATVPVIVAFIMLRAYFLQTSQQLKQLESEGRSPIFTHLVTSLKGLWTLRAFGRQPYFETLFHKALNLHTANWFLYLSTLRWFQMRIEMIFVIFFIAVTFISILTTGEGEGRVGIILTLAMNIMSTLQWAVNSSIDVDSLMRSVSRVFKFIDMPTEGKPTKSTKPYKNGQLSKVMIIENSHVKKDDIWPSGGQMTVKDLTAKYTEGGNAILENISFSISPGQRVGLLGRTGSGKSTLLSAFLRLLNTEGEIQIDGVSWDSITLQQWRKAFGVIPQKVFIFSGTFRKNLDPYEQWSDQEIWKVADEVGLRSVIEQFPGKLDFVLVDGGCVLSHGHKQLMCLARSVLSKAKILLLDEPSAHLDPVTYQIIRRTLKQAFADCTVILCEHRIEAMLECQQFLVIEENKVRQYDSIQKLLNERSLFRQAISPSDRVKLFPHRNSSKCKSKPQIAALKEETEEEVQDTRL
# From the text: (§1) Downward deflections represent channel opening.
# ΔF508-CFTR [2] = target: T1, ΔF508-CFTR; assay: Other protein tyrosine kinase inhibitors, activation of ΔF508-CFTR; type: cell-based; parameters: expressed in transfected cells; host or cells: NIH/3T3 cells, stably transfected (NIH/3T3-ΔF508, gift of Dr. Richard Mulligan)
# histidine kinase = details: cited from earlier work
# ΔF508-CFTR [3] = target: T1, ΔF508-CFTR; assay: Patch clamp, cell-attached patches, macroscopic current, NIH/3T3-ΔF508 cells
# Description: FIGS. 3A and B show recordings of the potentiation of wild-type (wt) and ΔF508-CFTR channel activity by genistein. Channels in cell-attached patches from NIH/3T3-CFTR (FIG. 3A) and NIH/3T3-ΔF508cells (FIG. 3B), were stimulated as indicated with 10 μM forskolin and 50μ genestein.
# Cell culture: NIH/3T3-CFTR, NIH/3T3-ΔF508, and NIH/3T3 mock cells (generous gifts from Dr. Richard Mulligan of Children's Hospital and Medical Center, Harvard Medical School) were grown as described [Bradbury et al., 1992] at 37° C. and 5% CO2 in Dulbecco's modified Eagle's medium-H21 supplemented with 10% new-born calf serum, 4 mM glutamine, 25 mM glucose, 100 μg/ml penicillin, 100 μg/ml streptomycin, and 50 μg/ml gentamicin. Cells were maintained in T75 flasks, passaged at 90-95% confluency, and split one to four. For measurements of I^- efflux and in vivo phosphorylation, cells were seeded onto 35-mm dishes at […]. For patch-clamp experiments, cells were grown on coverglass chips in 35-mm culture dishes. Media were replaced 24 hours after plating and thereafter every 48 hours. In all cases, media were changed on the day before I^- efflux studies, NIH/3T3-ΔF508 cells were transferred to 27° C. three days before use, and 1 day prior to study, media were supplemented with 5 mM butyrate. For patch-clamp studies, where a constant level of functional ΔF508-CFTR was not essential, NIH/3T3-ΔF508 cells were cultured at 27° C. for 2-6 days before use. Calu-3 cells were grown and maintained as described by Hunter [1995].
# Electrophysiology: CFTR channel currents were recorded at room temperature (~22° C.) with a patch-clamp amplifier (EPC-9, Heka Electronic), filtered at 100 Hz with a built-in three-pole Bessel filter, and stored on videotapes. Data were subsequently refiltered at 25 Hz with an eight-pole Bessel filter (Frequency Device, Havervill, Mass.) and captured onto a hard disk at a sampling rate of 50 Hz. […] Patch-clamp electrodes were made from Corning 7052 glass capillaries (Warner Instrument, Hammed, Conn.). The pipette resistance was usually 3-5 M.OMEGA., and the seal resistance was >20 G.OMEGA.. The pipette solution contained (in mM) 140 N-methyl-D-glucamine chloride (NMDG-C1), 2 MgCl2, 5Ca Cl2, and 10 HEPES (pH 7.4 with NMDG). The superfusion solution contained (in mM) 150 […], 2 MgCl2, 1 EGTA, 5 glucose, and 5 HEPES (pH 7.4 with NaOH). […]
# Statistics: Mean currents and variance were estimated with Igor (Wavemetrics, Lake Oswego, Oreg.). […] Po was calculated from patches containing a single channel by dividing the open channel current amplitude with the mean-current amplitude. […] Calculated values are presented as means±SE. […]
# wt-CFTR [4] = target: T2, wt-CFTR (Homo sapiens, UniProt P13569); parameters: expressed in transfected cells; host or cells: pooled: Calu-3 (endogenous, n=2); details: cited from earlier work
# T2 sequence (P13569 whole entry): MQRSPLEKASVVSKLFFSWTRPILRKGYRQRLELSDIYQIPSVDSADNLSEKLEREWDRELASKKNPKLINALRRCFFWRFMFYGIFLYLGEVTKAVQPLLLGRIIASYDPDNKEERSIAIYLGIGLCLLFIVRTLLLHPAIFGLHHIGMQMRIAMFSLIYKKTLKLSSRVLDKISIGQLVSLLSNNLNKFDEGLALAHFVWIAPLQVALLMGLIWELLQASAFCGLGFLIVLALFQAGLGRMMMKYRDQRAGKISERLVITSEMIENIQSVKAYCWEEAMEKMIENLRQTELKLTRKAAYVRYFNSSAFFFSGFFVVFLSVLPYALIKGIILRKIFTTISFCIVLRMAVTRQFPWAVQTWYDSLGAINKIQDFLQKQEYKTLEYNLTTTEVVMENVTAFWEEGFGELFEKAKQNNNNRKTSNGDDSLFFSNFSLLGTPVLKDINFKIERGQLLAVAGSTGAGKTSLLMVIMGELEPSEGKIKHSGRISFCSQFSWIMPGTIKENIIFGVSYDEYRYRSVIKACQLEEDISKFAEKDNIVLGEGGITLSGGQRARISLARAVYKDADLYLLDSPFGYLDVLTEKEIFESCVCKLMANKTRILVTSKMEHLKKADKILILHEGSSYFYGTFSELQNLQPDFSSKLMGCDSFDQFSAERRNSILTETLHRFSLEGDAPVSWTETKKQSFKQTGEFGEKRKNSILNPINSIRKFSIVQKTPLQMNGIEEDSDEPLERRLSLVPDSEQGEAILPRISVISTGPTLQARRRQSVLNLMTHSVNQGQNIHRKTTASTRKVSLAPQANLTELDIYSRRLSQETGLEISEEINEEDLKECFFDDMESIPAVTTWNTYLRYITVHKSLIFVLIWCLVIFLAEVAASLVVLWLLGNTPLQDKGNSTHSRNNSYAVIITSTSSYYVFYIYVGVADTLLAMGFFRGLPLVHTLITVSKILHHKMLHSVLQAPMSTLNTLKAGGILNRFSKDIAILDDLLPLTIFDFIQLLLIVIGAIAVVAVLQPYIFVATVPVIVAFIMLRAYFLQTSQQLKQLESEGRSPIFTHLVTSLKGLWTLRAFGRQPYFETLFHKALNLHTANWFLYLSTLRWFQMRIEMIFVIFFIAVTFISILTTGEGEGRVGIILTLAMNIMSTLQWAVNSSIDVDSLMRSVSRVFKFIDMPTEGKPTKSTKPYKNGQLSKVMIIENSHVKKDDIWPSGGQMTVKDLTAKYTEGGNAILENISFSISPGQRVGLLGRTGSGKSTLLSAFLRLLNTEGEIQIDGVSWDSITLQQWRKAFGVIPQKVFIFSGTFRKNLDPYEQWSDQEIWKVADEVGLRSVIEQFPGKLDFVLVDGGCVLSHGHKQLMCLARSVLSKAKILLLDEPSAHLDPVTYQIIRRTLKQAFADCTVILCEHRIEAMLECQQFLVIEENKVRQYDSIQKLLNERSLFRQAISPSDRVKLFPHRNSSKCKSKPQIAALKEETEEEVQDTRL
# protein phosphatase = details: cited from earlier work
# tyrosine kinases = details: cited from earlier work
# wt-CFTR [5] = target: T2, wt-CFTR
# Description: FIGS. 9A and B are recordings of the effects of genistein on CFTR gating in excised inside-out patches from NIH/3T3-CFTR or NIH/3T3-ΔF508 cells. CFTR channels were activated by 10 μM forskolin +20 nM calyculin A before excision into an inside-out configuration. Presence of calyculin A helps to slow channel dephosphorylation. (A): continuous 14.5 minute recording of a patch containing wt-CFTR. Expanded traces are 22 seconds in length. ATP (500 μM) with or without 20 μM genistein was present as indicated. (B): 2 traces of 44 seconds in length of an excised inside-out patch with CFTR-ΔF508.
# Electrophysiology: CFTR channel currents were recorded at room temperature (~22° C.) with a patch-clamp amplifier (EPC-9, Heka Electronic), filtered at 100 Hz with a built-in three-pole Bessel filter, and stored on videotapes. Data were subsequently refiltered at 25 Hz with an eight-pole Bessel filter (Frequency Device, Havervill, Mass.) and captured onto a hard disk at a sampling rate of 50 Hz. […] Patch-clamp electrodes were made from Corning 7052 glass capillaries (Warner Instrument, Hammed, Conn.). The pipette resistance was usually 3-5 M.OMEGA., and the seal resistance was >20 G.OMEGA.. The pipette solution contained (in mM) 140 N-methyl-D-glucamine chloride (NMDG-C1), 2 MgCl2, 5Ca Cl2, and 10 HEPES (pH 7.4 with NMDG). The superfusion solution contained (in mM) 150 […], 2 MgCl2, 1 EGTA, 5 glucose, and 5 HEPES (pH 7.4 with NaOH). In excised inside-out patch experiments, the bath solution contained (in mM) 130 MNDG-Cl, 10 EGTA, 10 HEPES, 20 tetraethylammonium chloride, 8 Tris, and 2 MgCl2 (pH 7.4 with NMDG). Pipette potential was held at 50 mV relative to the bath. Downward deflections represent channel opening.
# Channels were first activated in cell-attached patches with forskolin plus calyculin A, a membrane-permeant phosphatase inhibitor [Suganuma et al., 1991]. Patches were then excised into an inside-out configuration.
# [6] = test system: acid secretion and osteopathic bone resorption; details: cited from earlier work
# [7] = test system: cAMP levels or PKA activity; details: cited from earlier work
# wt-CFTR [8] = assay: Patch clamp, cell-attached patches, Calu-3 cells; type: cell-based, human; details: 50 μM genistein on forskolin, n=15
# From the text: as §1
smiles,measurement,setting,value
"O=c1c(-c2ccc(O)cc2)coc2cc(O)cc(O)c12 [Genistein, 4',5,7-trihydroxyisoflavone]",enhancement of ΔF508-CFTR channel activity by genistein,ΔF508-CFTR [1],19±11 fold
same,ΔF508-CFTR stimulation activity among protein tyrosine kinase inhibitors,ΔF508-CFTR [2],is the only protein tyrosine kinase inhibitor that has such an effect
same,inhibition of histidine kinase,histidine kinase,inhibits
same,patches showing channel activity,"ΔF508-CFTR [3]; 10 μM forskolin plus 50 μM genistein, cells grown at 37° C.",Approximately 10%
same,average increase in mean-current amplitude by genistein,"ΔF508-CFTR [3]; 50 μM genistein on 10 μM forskolin, cells cultured at 27° C., 23 patches, 50 µM",18.6±2.2 fold and 19 fold
same,patches responding,"ΔF508-CFTR [3]; forskolin plus genistein, cells grown at 27° C., 44 of 82",54%
same,basal wt-CFTR activity,wt-CFTR [4],stimulates basal wt-CFTR activity
same,channel activation in cells lacking basal CFTR activity,wt-CFTR [4],does not appear to activate the channel in cells that lack a basal CFTR activity
same,deactivation of wt-CFTR currents after removal of cAMP-dependent stimulation,wt-CFTR [4],prevents deactivation of wt-CFTR channel currents
same,potentiation of cAMP-dependent wt-CFTR activity,wt-CFTR [4],potentiates cAMP-dependent wt-CFTR channel activity
same,steady-state phosphorylation of wt-CFTR,wt-CFTR [4],increases the steady-state phosphorylation level of wt-CFTR
same,activation of wt-CFTR chloride channels,wt-CFTR [4]; variety of cells,activates wt-CFTR chloride channels
same,inhibition of protein phosphatase,protein phosphatase,no protein phosphatase has been shown to be inhibited by genistein
same,inhibition of tyrosine kinases,tyrosine kinases,inhibits
same,increase of ATP-induced currents by genistein,"wt-CFTR [5]; 50 μM genistein, n=8",2.2±0.1 fold
same,opening of channels in absence of ATP,"wt-CFTR [5]; 50 μM genistein, no ATP",did not open wt-CFTR channels in the absence of ATP
same,channel open time,"wt-CFTR [5]; ATP with genistein, stated for both wt- and ΔF508-CFTR","2,033±173 milliseconds"
same,increase in Po by genistein,"wt-CFTR [5]; excised patches, ATP",twofold increase in the Po
same,inhibition of acid secretion and osteopathic bone resorption,[6],effectively inhibits acid secretion and osteopathic bone resorption
same,effect on cAMP levels or PKA activity,[7],does not increase cAMP levels or PKA activity; also recorded: does not alter cellular cAMP levels or PKA activity
same,average increase in mean-current amplitude by genistein,wt-CFTR [8],3.1±0.3 fold

# Reference: US5948814A, “Genistein for the treatment of cystic fibrosis” (priority 1998, dated 1999)
